Experimental data as given in patent US10807970B2 (priority 2016, dated 2020).

Target: human σ1 receptor (Homo sapiens, UniProt Q99720)
Assay: Human σ1 receptor radioligand assay ([3H](+)-pentazocine, transfected HEK-293 membranes)
Format: binding
Parameters: μ and σ1 dual binding: key to the marks not given beside the values
Conditions: one class symbol for both Ki-σ1 (human σ1 receptor, A1) and Ki-μ (human μ-opioid receptor, A2)
Description: Human σ1 Receptor Radioligand Assay
To investigate binding properties of test compounds to human σ1 receptor, transfected HEK-293 membranes and [^3H](+)-pentazocine (Perkin Elmer, NET-1056), as the radioligand, were used. The assay was carried out with 7 μg of membrane suspension, 5 nM of [^3H](+)-pentazocine in either absence or presence of either buffer or 10 μM Haloperidol for total and non-specific binding, respectively. Binding buffer contained Tris-HCl 50 mM at pH 8. Plates were incubated at 37° C. for 120 minutes. After the incubation period, the reaction mix was then transferred to MultiScreen HTS, FC plates (Millipore), filtered and plates were washed 3 times with ice-cold 10 mM Tris-HCL (pH7.4). Filters were dried and counted at approximately 40% efficiency in a MicroBeta scintillation counter (Perkin-Elmer) using EcoScint liquid scintillation cocktail

Chain of human σ1 receptor (Q99720 whole entry): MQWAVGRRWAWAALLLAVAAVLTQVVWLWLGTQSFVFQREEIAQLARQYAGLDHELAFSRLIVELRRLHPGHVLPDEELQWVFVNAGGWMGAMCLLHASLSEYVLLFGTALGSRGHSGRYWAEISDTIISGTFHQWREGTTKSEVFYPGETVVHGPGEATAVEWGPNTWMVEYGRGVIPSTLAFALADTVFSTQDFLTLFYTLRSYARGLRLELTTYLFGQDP

With `CCC1(N2CCN(Cc3ccccc3)CC2)CCOC(C)(C)C1` (centres unmarked) [Example 38, 1-benzyl-4-(4-ethyl-2,2-dimethyltetrahydro-2H-pyran-4-yl)piperazine] as the compound, how does the “μ and σ1 dual binding” value read?
Its value is “++”.

For `CCC1(N2CCN(CCOC(C)C)CC2)CCOC(C)(C)C1` (centres unmarked) [Example 39, 1-(4-ethyl-2,2-dimethyltetrahydro-2H-pyran-4-yl)-4-(2-isopropoxyethyl)piperazine], which “μ and σ1 dual binding” value is on record?
The value was “++”.

How did the “μ and σ1 dual binding” value turn out when `CC1(C)CC(C(=O)c2ccccn2)(N2CCN(Cc3ccccn3)CC2)CCO1` (centres unmarked) [Example 50, (2,2-dimethyl-4-(4-(pyridin-2-ylmethyl)piperazin-1-yl)tetrahydro-2H-pyran-4-yl)(pyridin-2-yl)methanone] was run?
Its value is “++”.

How did the “μ and σ1 dual binding” value turn out when `CC1(C)CC(C)(N2CCN(CCc3ccccc3)CC2)CCO1` (centres unmarked) [Example 53, 1-phenethyl-4-(2,2,4-trimethyltetrahydro-2H-pyran-4-yl)piperazine] was run?
The value was “++”.

How did the “μ and σ1 dual binding” value turn out when `CC1(C)CC(C(=O)c2ccccn2)(N2CCN(CCc3ncccc3F)CC2)CCO1` (centres unmarked) [Example 55, (4-(4-(2-(3-fluoropyridin-2-yl)ethyl)piperazin-1-yl)-2,2-dimethyltetrahydro-2H-pyran-4-yl)(pyridin-2-yl)methanone] was run?
Its value is “++”.

Which “μ and σ1 dual binding” value does the source give for `CC(c1ccc(F)cc1)N1CCN(C2(C(=O)c3ccccn3)CCOC(C)(C)C2)CC1` (centres unmarked) [Example 63, (4-(4-(1-(4-fluorophenyl)ethyl)piperazin-1-yl)-2,2-dimethyltetrahydro-2H-pyran-4-yl)(pyridin-2-yl)methanone] here?
The value was “++”.

Same assay, conditions: one class symbol for both Ki-σ1 (human σ1 receptor, A1) and Ki-μ (human μ-opioid receptor, A2); read-out: μ and σ1 dual binding

Which Ki does the source give for `C=CC1(N2CCN(CCc3ccccc3)CC2)CCOC(C)(C)C1` (centres unmarked) [Example 45, 1-(2,2-dimethyl-4-vinyltetrahydro-2H-pyran-4-yl)-4-phenethylpiperazine] here?
Its Ki is greater than 500 nM.

`CC1(C)CC(CCO)(N2CCN(CCc3ccccc3)CC2)CCO1` (centres unmarked) [Example 48, 2-(2,2-dimethyl-4-(4-phenethylpiperazin-1-yl)tetrahydro-2H-pyran-4-yl)ethanol] was tested. Which Ki did it give?
The Ki was greater than 500 nM.

With `CCC1(N2CCN(CCc3ccccc3)CC2)CCOC(C)(C)C1` (centres unmarked) [Example 52, 1-(4-ethyl-2,2-dimethyltetrahydro-2H-pyran-4-yl)-4-phenethylpiperazine] as the compound, how does the Ki read?
Its Ki is less than 500 nM.

For `CC1(C)CC(C(=O)c2ccccn2)(N2CCN(CCc3ncccc3Cl)CC2)CCO1` (centres unmarked) [Example 56, (4-(4-(2-(3-chloropyridin-2-yl)ethyl)piperazin-1-yl)-2,2-dimethyltetrahydro-2H-pyran-4-yl)(pyridin-2-yl)methanone], which Ki is on record?
The Ki was greater than 500 nM.

For `CC1(C)CC(C(=O)c2ccccn2)(N2CCN(Cc3cccnc3)CC2)CCO1` (centres unmarked) [Example 58, (2,2-dimethyl-4-(4-(pyridin-3-ylmethyl)piperazin-1-yl)tetrahydro-2H-pyran-4-yl)(pyridin-2-yl)methanone], which Ki is on record?
Its Ki is greater than 500 nM.

Which Ki does the source give for `CC1(C)CC(C(=O)c2ccccn2)(N2CCN(Cc3ccncc3)CC2)CCO1` (centres unmarked) [Example 59, (2,2-dimethyl-4-(4-(pyridin-4-ylmethyl)piperazin-1-yl)tetrahydro-2H-pyran-4-yl)(pyridin-2-yl)methanone] here?
Its Ki is greater than 500 nM.

For `CC(C)OCCN1CCN(C2(C(=O)c3ccccn3)CCOC(C)(C)C2)CC1` (centres unmarked) [Example 65, (4-(4-(2-isopropoxyethyl)piperazin-1-yl)-2,2-dimethyltetrahydro-2H-pyran-4-yl)(pyridin-2-yl)methanone], which Ki is on record?
The Ki was less than 500 nM.

Which Ki does the source give for `CCOCCN1CCN(C2(C(=O)c3ccccn3)CCOC(C)(C)C2)CC1` (centres unmarked) [Example 67, (4-(4-(2-ethoxyethyl)piperazin-1-yl)-2,2-dimethyltetrahydro-2H-pyran-4-yl)(pyridin-2-yl)methanone] here?
The Ki was greater than 500 nM.

How did the Ki turn out when `COCCN1CCN(C2(C(=O)c3ccccn3)CCOC(C)(C)C2)CC1` (centres unmarked) [Example 68, (4-(4-(2-methoxyethyl)piperazin-1-yl)-2,2-dimethyltetrahydro-2H-pyran-4-yl)(pyridin-2-yl)methanone] was run?
Its Ki is greater than 500 nM.

Same assay, conditions: μ and σ1 dual binding, one class symbol for both Ki-σ1 (human σ1 receptor, A1) and Ki-μ (human μ-opioid receptor, A2)

`CC1(C)CC(Cc2ccccc2)(N2CCN(Cc3ccccc3)CC2)CCO1` (centres unmarked) [Example 40, 1-benzyl-4-(4-benzyl-2,2-dimethyltetrahydro-2H-pyran-4-yl)piperazine] was tested. Which Ki did it give?
The Ki was less than 100 nM.

With `CCCC1(N2CCN(CCc3ccccc3)CC2)CCOC(C)(C)C1` (centres unmarked) [Example 41, 1-(2,2-dimethyl-4-propyltetrahydro-2H-pyran-4-yl)-4-phenethylpiperazine] as the compound, how does the Ki read?
The Ki was less than 500 nM.

Which Ki does the source give for `CC(C)C1(N2CCN(CCc3ccccc3)CC2)CCOC(C)(C)C1` (centres unmarked) [Example 42, 1-(4-isopropyl-2,2-dimethyltetrahydro-2H-pyran-4-yl)-4-phenethylpiperazine] here?
The Ki was less than 100 nM.

With `CC(C)C1(N2CCN(Cc3ccccc3)CC2)CCOC(C)(C)C1` (centres unmarked) [Example 43, 1-benzyl-4-(4-isopropyl-2,2-dimethyltetrahydro-2H-pyran-4-yl)piperazine] as the compound, how does the Ki read?
Its Ki is less than 500 nM.

`CC1(C)CC(C2CC2)(N2CCN(CCc3ccccc3)CC2)CCO1` (centres unmarked) [Example 44, 1-(4-cyclopropyl-2,2-dimethyltetrahydro-2H-pyran-4-yl)-4-phenethylpiperazine] was tested. Which Ki did it give?
The Ki was less than 500 nM.

For `COCCC1(N2CCN(CCc3ccccc3)CC2)CCOC(C)(C)C1` (centres unmarked) [Example 49, 1-(4-(2-Methoxyethyl)-2,2-dimethyltetrahydro-2H-pyran-4-yl)-4-phenethylpiperazine], which Ki is on record?
Its Ki is less than 500 nM.

With `CC(C)CN1CCN(C2(C(=O)c3ccccn3)CCOC3(CCCC3)C2)CC1` (centres unmarked) [Example 51, (9-(4-isobutylpiperazin-1-yl)-6-oxaspiro[4.5]decan-9-yl)(pyridin-2-yl)methanone] as the compound, how does the Ki read?
Its Ki is less than 500 nM.

With `CC1(C)CC(C(=O)c2ccccn2)(N2CCN(CCc3ccccc3)CC2)CCO1` (centres unmarked) [Example 54, (2,2-dimethyl-4-(4-phenethylpiperazin-1-yl)tetrahydro-2H-pyran-4-yl)(pyridin-2-yl)methanone] as the compound, how does the Ki read?
The Ki was less than 500 nM.

With `CC1(C)CC(C(=O)c2ccccn2)(N2CCN(CCc3ccncc3Cl)CC2)CCO1` (centres unmarked) [Example 57, (4-(4-(2-(3-chloropyridin-4-yl)ethyl)piperazin-1-yl)-2,2-dimethyltetrahydro-2H-pyran-4-yl)(pyridin-2-yl)methanone] as the compound, how does the Ki read?
Its Ki is less than 500 nM.

For `CC1(C)CC(C(=O)c2ccccn2)(N2CCN(Cc3ccc(F)cc3)CC2)CCO1` (centres unmarked) [Example 60, (4-(4-(4-fluorobenzyl)piperazin-1-yl)-2,2-dimethyltetrahydro-2H-pyran-4-yl)(pyridin-2-yl)methanone], which Ki is on record?
The Ki was less than 500 nM.

With `CC1(C)CC(C(=O)c2ccccn2)(N2CCN(Cc3cccc(F)c3)CC2)CCO1` (centres unmarked) [Example 61, (4-(4-(3-fluorobenzyl)piperazin-1-yl)-2,2-dimethyltetrahydro-2H-pyran-4-yl)(pyridin-2-yl)methanone] as the compound, how does the Ki read?
The Ki was less than 500 nM.

For `CC(c1ccccc1)N1CCN(C2(C(=O)c3ccccn3)CCOC(C)(C)C2)CC1` (centres unmarked) [Example 62, (2,2-dimethyl-4-(4-(1-phenylethyl)piperazin-1-yl)tetrahydro-2H-pyran-4-yl)(pyridin-2-yl)methanone], which Ki is on record?
The Ki was less than 500 nM.

`CC(C)CCN1CCN(C2(C(=O)c3ccccn3)CCOC(C)(C)C2)CC1` (centres unmarked) [Example 64, (4-(4-isopentylpiperazin-1-yl)-2,2-dimethyltetrahydro-2H-pyran-4-yl)(pyridin-2-yl)methanone] was tested. Which Ki did it give?
The Ki was less than 500 nM.

For `CC(C)COCCN1CCN(C2(C(=O)c3ccccn3)CCOC(C)(C)C2)CC1` (centres unmarked) [Example 66, (4-(4-(2-isobutoxyethyl)piperazin-1-yl)-2,2-dimethyltetrahydro-2H-pyran-4-yl)(pyridin-2-yl)methanone], which Ki is on record?
The Ki was less than 500 nM.
